Source: US20250368645A1, “BETA CARBOLINE ANALOGUES AS SELECTIVE AND BIASED KAPPA OPIOID RECEPTORS AGONISTS FOR TREATING VARIOUS ASSOCIATED PATHOPHYSIOLOGICAL CONDITIONS” (COUNCIL OF SCIENTIFIC AND INDUSTRIAL RESEARCH, priority 2022, published 2025)

Legend:
Type in all cases: cell-based
human KOR = human KOR (Homo sapiens, UniProt P41145); experiment: GloSensor assay, Gi-mediated cAMP inhibition in HEK-293T cells transfected with human KOR; settings: given as Log IC50 (negative values); agonist activity, inhibition of FSK-stimulated cAMP; read-out: GloSensor Assay (Log IC50) KOR (converted)
MOR = MOR (Homo sapiens, UniProt P35372); experiment: GloSensor assay at MOR; settings: given as Log IC50 (negative values)
DOR = DOR (Homo sapiens, UniProt P41143); experiment: GloSensor assay at DOR; settings: given as Log IC50 (negative values)
DOR, sequence (P41143 whole entry): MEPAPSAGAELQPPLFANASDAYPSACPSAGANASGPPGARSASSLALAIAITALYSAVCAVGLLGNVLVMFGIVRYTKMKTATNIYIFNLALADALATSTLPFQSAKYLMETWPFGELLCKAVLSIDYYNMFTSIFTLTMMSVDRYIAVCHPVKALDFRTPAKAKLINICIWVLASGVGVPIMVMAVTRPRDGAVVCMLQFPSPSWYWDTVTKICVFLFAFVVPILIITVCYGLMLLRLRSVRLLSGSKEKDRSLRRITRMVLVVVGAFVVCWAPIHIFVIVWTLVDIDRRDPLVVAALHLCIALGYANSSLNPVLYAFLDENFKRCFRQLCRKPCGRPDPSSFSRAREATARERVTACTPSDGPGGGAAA

human KOR, sequence (P41145 whole entry): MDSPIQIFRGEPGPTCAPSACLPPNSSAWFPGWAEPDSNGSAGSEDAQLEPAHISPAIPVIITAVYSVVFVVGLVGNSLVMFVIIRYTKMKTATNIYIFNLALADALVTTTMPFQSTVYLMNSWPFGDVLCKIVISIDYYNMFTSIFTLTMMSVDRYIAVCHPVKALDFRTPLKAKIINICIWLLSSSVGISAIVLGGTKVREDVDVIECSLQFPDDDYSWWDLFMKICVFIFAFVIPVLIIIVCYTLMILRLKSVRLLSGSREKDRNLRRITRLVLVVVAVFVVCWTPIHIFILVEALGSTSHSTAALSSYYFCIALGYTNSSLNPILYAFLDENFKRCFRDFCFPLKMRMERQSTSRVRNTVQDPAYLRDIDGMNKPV
MOR, sequence (P35372 whole entry): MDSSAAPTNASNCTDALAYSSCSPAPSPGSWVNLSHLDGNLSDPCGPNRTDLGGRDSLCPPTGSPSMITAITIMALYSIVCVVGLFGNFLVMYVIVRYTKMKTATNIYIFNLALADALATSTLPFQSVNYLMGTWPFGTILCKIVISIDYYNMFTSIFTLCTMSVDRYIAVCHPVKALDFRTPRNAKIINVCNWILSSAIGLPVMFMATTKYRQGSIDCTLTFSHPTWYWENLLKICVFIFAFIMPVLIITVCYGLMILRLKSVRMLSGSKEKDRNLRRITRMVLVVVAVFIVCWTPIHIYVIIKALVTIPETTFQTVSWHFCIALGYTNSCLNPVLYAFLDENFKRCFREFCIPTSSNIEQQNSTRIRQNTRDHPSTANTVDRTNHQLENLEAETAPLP

IC50 (human KOR) | IC50 (MOR) | IC50 (DOR) | Compound
0.2 µM | > 10 µM | > 10 µM | Fc1ccc(-n2c[n+]3ccc4c5ccccc5[nH]c4c3c2-c2cccc(F)c2)cc1 [8aid, 1-(3-Fluorophenyl)-2-(4-fluorophenyl)-2,11-dihydroimidazo[1′,5′:1,2]pyrido[3,4-b]indol-4-ium]
0.126 µM | > 10 µM | > 10 µM | Clc1ccc(-n2c[n+]3ccc4c5ccccc5[nH]c4c3c2-c2ccccc2)cc1 [8aac, 2-(4-Chlorophenyl)-1-phenyl-2,11-dihydroimidazo[1′,5′:1,2]pyrido[3,4-b]indol-4-ium chloride]
0.316 µM | > 10 µM | > 10 µM | Clc1ccc(-n2c[n+]3ccc4c5ccccc5[nH]c4c3c2-c2cccc(Cl)c2)cc1 [8afc, 1-(3-Chlorophenyl)-2-(4-chlorophenyl)-2,11-dihydrolmidazo[1′,5′:1,2]pyrido[3,4-b]indol-4-ium chloride]
> 10 µM | 1.26 µM | 2 µM | Clc1ccccc1-c1c2c3[nH]c4ccccc4c3cc[n+]2cn1-c1ccc(Br)cc1 [8aeb, 2-(4-Bromophenyl)-1-(2-chlorophenyl)-2,11-dihydroimidazo[1′,5′:1,2]pyrido[3,4-b]indol-4-ium chloride]
> 10 µM | > 10 µM | > 10 µM | Cn1c2ccccc2c2cc[n+]3cn(-c4ccc(Cl)cc4)c(-c4ccc(Cl)cc4)c3c21 [8ddc, 1,2-Bis(4-chlorophenyl)-11-methyl-2,11-dihydroimidazo[1′,5′:1,2]pyrido[3,4-b]indol-4-iumchloride]
> 10 µM | > 10 µM | > 10 µM | Fc1cccc(-n2c[n+]3ccc4c5ccccc5[nH]c4c3c2-c2ccc(Br)cc2)c1 [8abi, 1-(4-Bromophenyl)-2-(3-fluorophenyl)-2,11-dihydroimidazo[1′,5′:1,2]pyrido[3,4-b]indol-4-ium chloride]
0.0661 µM | > 10 µM | > 10 µM | Brc1ccc(-n2c[n+]3ccc4c5ccccc5[nH]c4c3c2-c2ccccc2)cc1 [8aab, 2-(4-Bromophenyl)-1-phenyl-2,11-dihydroimidazo[1′,5′:1,2]pyrido[3,4-b]indol-4-ium chloride]
> 10 µM | > 10 µM | > 10 µM | FC(F)(F)c1ccc(Cn2c[n+]3ccc4c5ccccc5[nH]c4c3c2-c2ccc(Br)cc2)cc1 [9aad, 1-(4-Bromophenyl)-2-(4-(trifluoromethyl)benzyl)-2,11-dihydroimidazo[1′,5′:1,2]pyrido[3,4-b]indol-4-ium chloride]
> 10 µM | > 10 µM | > 10 µM | Fc1ccc(-n2c[n+]3c4ccccc4c4c5ccccc5[nH]c4c3c2-c2ccc(Br)cc2)cc1 [12cc, 1-4-Bromphenyl)-2-(4-fluorophenyl)-2,13-dihydroimidazo[1,5-a]indolo[2,3-c]quinolin-4-ium chloride]
> 10 µM | > 10 µM | > 10 µM | Fc1ccc(-c2c3c4[nH]c5ccccc5c4cc[n+]3cn2-c2cccc(Br)c2)cc1 [8age, 2-(3-Bromophenyl)-1-(4-fluorophenyl)-2,11-dihydroimidazo[1′,5′:1,2]pyrido[3,4-b]indol-4-ium chloride]
> 10 µM | > 10 µM | > 10 µM | Fc1ccc(-c2c3c4[nH]c5ccccc5c4cc[n+]3cn2-c2ccc(F)cc2)cc1 [8agd, 1,2-Bis(4-fluorophenyl)-2,11-dihydroimidazo[1′,5′:1,2]pyrido[3,4-b]indol-4-ium chloride]
0.269 µM | > 10 µM | > 10 µM | Fc1ccc(-n2c[n+]3ccc4c5ccccc5[nH]c4c3c2-c2ccccc2)cc1 [8aad, 2-(4-Fluorophenyl)-1-phenyl-2,11-dihydroimidazo[1′,5′:1,2]pyrido[3,4-b]indol-4-ium chloride]
3.16 µM | > 10 µM | > 10 µM | COC(=O)c1cc2c3ccccc3[nH]c2c2c(C)n(-c3ccc(F)cc3)c[n+]12 [8bpd, 2-(4-Fluorophenyl)-5-(methoxycarbonyl)-1-methyl-2,11-dihydroimidazo[1′,5′:1,2]pyrido[3,4-b]indol-4-ium chloride]
> 10 µM | > 10 µM | > 10 µM | O=[N+]([O-])c1ccc(-c2c3c4[nH]c5ccccc5c4cc[n+]3cn2-c2ccc(F)cc2)cc1 [8ald, 2-(4-Fluorophenyl)-1-(4-nitrophenyl)-2,11-dihydrolmidazo[1′,5′:1,2]pyrido[3,4-b]indol-4-ium chloride]
1.82 µM | > 10 µM | > 10 µM | Fc1ccc(-n2c[n+]3ccc4c5ccccc5[nH]c4c3c2-c2cccc(Cl)c2)cc1 [8afd, 1-(3-Chlorophenyl)-2-(4-fluorophenyl)-2,11-dihydroimidazo[1′,5′:1,2]pyrido[3,4-b]indol-4-ium chloride]
> 10 µM | > 10 µM | > 10 µM | Cn1c2ccccc2c2cc[n+]3cn(-c4ccc(Cl)cc4)c(-c4ccc(Br)cc4)c3c21 [8dbc, 1-(4-Bromophenyl)-2-(4-chlorophenyl)-11-methyl-2,11 dihydroimidazo[1′,5′:1,2]pyrido[3,4-b]indol-4-iumchloride]

IC50 (human KOR) | IC50 (MOR) | IC50 (DOR) | Compound
> 10 µM | > 10 µM | > 10 µM | FC(F)(F)Oc1ccc(-n2c[n+]3ccc4c5ccccc5[nH]c4c3c2-c2ccc(Br)cc2)cc1 [8abh]
0.0759 µM | > 10 µM | > 10 µM | COc1ccc(Cn2c[n+]3ccc4c5ccccc5[nH]c4c3c2-c2ccc(Cl)cc2)cc1 [9abe, 1-(4-Chlorophenyl)-2-(4-methoxybenzyl)-2,11-dihydrolmidazo[1′,5′:1,2]pyrido[3,4-b]indol-4-ium chloride]
0.0398 µM | > 10 µM | > 10 µM | c1ccc(-n2c[n+]3ccc4c5ccccc5[nH]c4c3c2-c2cc3ccccc3o2)cc1 [8amd, 1-(Benzofuran-2-yl)-2-phenyl-2,11-dihydroimidazo[1′,5′:1,2]pyrido[3,4-b]indol-4-ium chloride]
0.2 µM | > 10 µM | 3.16 µM | Brc1ccccc1-c1c2c3[nH]c4ccccc4c3cc[n+]2cn1-c1ccccc1 [8aca, 1-(2-Bromophenyl)-2-phenyl-2,11-dihydroimidazo[1′,5′:1,2]pyrido[3,4-b]indol-4-ium chloride]
> 10 µM | > 10 µM | > 10 µM | Fc1ccc(-c2c3c4[nH]c5ccccc5c4cc[n+]3cn2-c2ccc(Br)cc2)cc1 [8agb, 2-(4-Bromophenyl)-1-(4-fluorophenyl)-2,11-dihydroimidazo[1′,5′:1,2]pyrido[3,4-b]indol-4-ium chloride]
> 10 µM | > 10 µM | > 10 µM | Fc1ccc(-c2c3c4[nH]c5ccccc5c4cc[n+]3cn2-c2ccccc2)cc1 [8aga, 1-(4-Fluorophenyl)-2-phenyl-2,11-dihydroimidazo[1′,5′:1,2]pyrido[3,4-b]indol-4-ium chloride]
0.0631 µM | > 10 µM | > 10 µM | Clc1cccc(-n2c[n+]3ccc4c5ccccc5[nH]c4c3c2-c2ccccc2Br)c1 [8acf, 1-(2-Bromophenyl)-2-(3-chlorophenyl)-2,11-dihydroimidazo[1′,5′:1,2]pyrido[3,4-b]indol-4-ium chloride]
> 10 µM | > 10 µM | > 10 µM | Fc1ccc(-n2c[n+]3ccc4c5ccccc5[nH]c4c3c2-c2ccc(Br)cc2)c(Cl)c1 [8abl, 1-(4-Bromophenyl)-2-(2-chloro-4-fluorophenyl)-2,11-dihydrolmidazo[1′,5′:1,2]pyrido[3,4-b]indol-4-ium chloride]
0.263 µM | > 10 µM | > 10 µM | Fc1ccc(Cn2c[n+]3ccc4c5ccccc5[nH]c4c3c2-c2ccc(Br)cc2)cc1 [9aab, 1-(4-Bromophenyl)-2-(4-fluorobenzyl)-2,11-dihydroimidazo[1′,5′:1,2]pyrido[3,4-b]indol-4-ium chloride]
> 10 µM | > 10 µM | > 10 µM | COc1cc(-c2c3c4[nH]c5ccccc5c4cc[n+]3cn2-c2ccc(F)cc2)cc(OC)c1OC [8apd, 2-(4-Fluorophenyl)-1-(3,4,5-trimethoxyphenyl)-2,11-dihydroimidazo[1′,5′:1,2]pyrido[3,4-b]indol-4-ium chloride]
0.794 µM | > 10 µM | > 10 µM | COc1ccc(-n2c[n+]3ccc4c5ccccc5[nH]c4c3c2-c2ccc(Cl)cc2)cc1 [8adg, 1-(4-Chlorophenyl)-2-(4-methoxyphenyl)-2,11-dihydroimidazo[1′,5′:1,2]pyrido[3,4-b]indol-4-ium chloride]
> 10 µM | > 10 µM | > 10 µM | Fc1ccc(-n2c[n+]3ccc4c5ccccc5[nH]c4c3c2-c2ccc(Br)cc2)cc1F [8abm, 1-(4-Bromophenyl)-2-(3,4-difluorophenyl)-2,11-dihydroimidazo[1′,5′:1,2]pyrido[3,4-b]indol-4-ium chloride]
0.0794 µM | > 10 µM | > 10 µM | Fc1ccccc1-n1c[n+]2ccc3c4ccccc4[nH]c3c2c1-c1ccc(Br)cc1 [8abk, 1-(4-Bromophenyl)-2-(2-fluorophenyl)-2,11-dihydroimidazo[1′,5′:1,2]pyrido[3,4-b]indol-4-ium chloride]
> 10 µM | > 10 µM | > 10 µM | Clc1ccc(-c2c3c4[nH]c5ccccc5c4cc[n+]3cn2-c2cccc(Br)c2)cc1 [8ade, 2-(3-Bromophenyl)-1-(4-chlorophenyl)-2,11-dihydroimidazo[1′,5′:1,2]pyrido[3,4-b]indol-4-ium chloride]
> 10 µM | > 10 µM | > 10 µM | COC(=O)c1cc2c3ccccc3[nH]c2c2c(-c3ccc(Br)cc3)n(-c3ccc(F)cc3)c[n+]12 [8bbd, 1-(4-Bromophenyl)-2-(4-fluorophenyl)-5-(methoxycarbonyl)-2,11-dihydroimidazo[1′,5′:1,2]pyrido[3,4-b]indol-4-iumchloride]
